Drawing on US20240262848A1, “HETEROCYCLIC COMPOUNDS, COMPOSITIONS THEREOF, AND METHODS OF TREATMENT THEREWITH” (BeiGene, Ltd., priority 2022, published 2024), this text covers IC50 for eight compounds.

The test system of assay [1] is pERK1/2(THR202/TYR204) level in SW620 cell line. Description: KRAS G12V pERK assay in SW620 cells (HTRF). The class given is cell-based. The settings on record: Homo sapiens, SW-620, Table 4, 2 hrs compound treatment. A digest of the protocol:
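SW620 cells were treated for 2 h with a 10-point dilution series (final 0–10 μM) after overnight seeding. Lysates were then incubated overnight at room temperature with Eu3+-cryptate and acceptor anti-phospho-ERK1/2 antibodies, and HTRF was read at 655 nm. IC50 was fitted from percent inhibition versus log concentration.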
A general note: Time-resolved FRET reads energy transfer from a long-lived donor to a nearby acceptor.

The target of assay [2] is GST-tagged GDP-loaded KRAS G12V (amino acids 1-169) (Homo sapiens, UniProt P01116, G12V). Put plainly: KRAS G12V probe displacement assay (TR-FRET). The settings on record: Table 4; KRAS G12V 2 nM, biotinylated probe 2 2.5 nM. The class given is binding. The method, then: Plates are incubated at 24 °C for 1 hr. […] After 1 hr incubation at 24° C.
Assay [3] has as its target GST-tagged GDP-loaded KRAS G12D (amin acids 1-188) (Homo sapiens, UniProt P01116, G12D). Description: KRAS G12D probe displacement assay (TR-FRET). It is filed as binding. The note with it: Table 5; KRAS G12D 0.5 nM, biotinylated probe 2 4 nM. The method, then:
Plates are incubated at 24° C. for 1 hr.

For assay [4], the system named is pERK1/2(THR202/TYR204) level in AsPC-1 cell line. Description: KRAS G12D pERK assay in AsPC-1 cells (HTRF). The class given is cell-based. The settings on record: Homo sapiens, ASPC1, Table 5, 2 h compound treatment. The method, then:
AsPC-1 cell line was used in this study. Cells were maintained in RPMI-1640 supplemented with 10% fetal bovine serum (Thermo Fisher), 50 units/ml, penicillin and streptomycin (Thermo Fisher) and kept at 37° C. in a humidified atmosphere of 5% CO2 in air. Cells were reinstated from frozen stocks that were laid down within 30 passages from the original cells purchased. 30000 cells per well were seeded into a 96-well plate and incubated overnight. Cells were treated with a 10-point dilution series. The final compound concentration is from 0 to 10 μM. After 2 h compound treatment, cells were lysed, and the pERK1/2(THR202/TYR204) level in the cell lysates was detected by HTRF kit (Cisbio). In brief, a total of 16 μL of cell lysate from each well of a 96-well plate was transferred to a 384-well white assay plate. Lysate from each well was incubated with 2 μL of Eu3+-cryptate (donor) labeled anti-phospho-ERK1/2 and 2 μL of D2 (acceptor) labeled anti-phospho-ERK1/2 antibodies (Cisbio) overnight in dark at room temperature. When the donor and acceptor are in close proximity, excitation of the donor with laser triggers a Fluorescence Resonance Energy Transfer (FRET) towards the acceptor, which in turn fluoresces at 655 nm wavelength. FRET signals were measured using a PHERAstar FSX reader (BMG Labtech). IC50 determination was performed by fitting the curve of percent inhibition versus the log of the inhibitor concentration using Dotmatics.

GST-tagged GDP-loaded KRAS G12D (amin acids 1-188), sequence (P01116 1-188 isoform P01116-2 G12D): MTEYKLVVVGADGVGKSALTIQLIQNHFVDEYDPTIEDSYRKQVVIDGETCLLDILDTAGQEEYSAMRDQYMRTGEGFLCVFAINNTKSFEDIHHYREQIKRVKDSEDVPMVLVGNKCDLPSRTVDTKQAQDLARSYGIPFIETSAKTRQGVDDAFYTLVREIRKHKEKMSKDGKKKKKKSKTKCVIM
GST-tagged GDP-loaded KRAS G12V (amino acids 1-169), sequence (P01116 1-169 isoform P01116-2 G12V): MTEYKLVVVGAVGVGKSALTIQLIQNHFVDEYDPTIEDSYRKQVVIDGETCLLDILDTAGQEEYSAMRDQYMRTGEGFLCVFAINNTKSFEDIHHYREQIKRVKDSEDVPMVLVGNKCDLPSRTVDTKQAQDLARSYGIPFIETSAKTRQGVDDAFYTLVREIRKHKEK

Turning to `C[C@@H]1C[C@H](C)Oc2nc(-c3cc(N)cc(Cl)c3C(F)(F)F)c(F)c3nc(OC[C@@]45CCCN4C[C@H](F)C5)nc(c23)N1C` [Example 34, 3-chloro-5-((8S,10R)-4-fluoro-2-(((2R,7aS)-2-fluorotetrahydro-1H-pyrrolizin-7a(5H)-yl)methoxy)-8,10,11-trimethyl-8,9,10,11-tetrahydro-7-oxa-1,3,6,11-tetraazacycloocta[de]naphthalen-5-yl)-4-(trifluoromethyl)aniline], the IC50 in assay [1] stood at 13 nM; in assay [2], 0.59 nM; in assay [3], 0.59 nM; in assay [4] it was 25 nM.

Turning to `CCN1c2nc(OC[C@@]34CCCN3C[C@H](F)C4)nc3c(F)c(-c4cc(N)cc(Cl)c4C(F)(F)F)nc(c23)OCCC12COC2` [Example 35, 3-chloro-5-(11-ethyl-4-fluoro-2-(((2R,7aS)-2-fluorotetrahydro-1H-pyrrolizin-7a(5H)-yl)methoxy)-8,9-dihydro-11H-7-oxa-1,3,6,11-tetraazaspiro[cycloocta[de]naphthalene-10,3′-oxetan]-1(11a), 2,3a, 3a^1(6a), 5-pentaen-5-yl)-4-(trifluoromethyl)aniline], the IC50 in assay [1] stood at 26 nM; in assay [2], 0.47 nM; in assay [3], 0.33 nM; in assay [4], 22 nM.

Take `CN1c2nc(OC[C@@]34CCCN3C[C@H](F)C4)nc3c(F)c(-c4cc(N)cc(Cl)c4C(F)(F)F)nc(c23)O[C@H]2COCC[C@@H]21` [Example 49, 3-chloro-5-((7aR,11aS)-4-fluoro-2-(((2R,7aS)-2-fluorotetrahydro-1H-pyrrolizin-7a(5H)-yl)methoxy)-12-methyl-7a, 8,10,11,11a, 12-hexahydro-7,9-dioxa-1,3,6,12-tetraazapleiaden-5-yl)-4-(trifluoromethyl)aniline]: the IC50 in assay [1] was found to be 8.4 nM; in assay [2], 0.54 nM; in assay [3], 0.27 nM; in assay [4], 7.6 nM.

In the case of `CN1c2nc(OC[C@@]34CCCN3C[C@H](F)C4)nc3c(F)c(-c4cc(N)cc(Cl)c4C(F)(F)F)nc(c23)O[C@@H]2CCOC[C@H]21` [Example 51, 3-chloro-5-((7aR,11aR)-4-fluoro-2-(((2R,7aS)-2-fluorotetrahydro-1H-pyrrolizin-7a(5H)-yl)methoxy)-12-methyl-7a, 8,11a, 12-tetrahydro-9H, 11H-7,10-dioxa-1,3,6,12-tetraazapleiaden-5-yl)-4-(trifluoromethyl)aniline], the concentration for half-maximal inhibition (IC50) in assay [1] came to 9.3 nM; in assay [2], 0.5 nM; in assay [3], 0.28 nM; in assay [4], 30 nM.

Turning to `Cc1cc(N)cc(-c2nc3c4c(nc(OC[C@@]56CCCN5C[C@H](F)C6)nc4c2F)N(C)[C@@H]2COCC[C@H]2O3)c1C(F)(F)F` [Example 61, 3-((7aR,11aR)-4-fluoro-2-(((2R,7aS)-2-fluorotetrahydro-1H-pyrrolizin-7a(5H)-yl)methoxy)-12-methyl-7a, 8,11a, 12-tetrahydro-9H, 11H-7,10-dioxa-1,3,6,12-tetraazapleiaden-5-yl)-5-methyl-4-(trifluoromethyl)aniline], the IC50 stood at 22 nM in assay [1], 0.8 nM in assay [2], 0.57 nM in assay [3] and 23 nM in assay [4].

For the compound `C=C1CN2CCC[C@@]2(COc2nc3c4c(nc(-c5cc(N)cc(Cl)c5C(F)(F)F)c(F)c4n2)O[C@H]2COCC[C@@H]2N3C)C1` [Example 62, 3-chloro-5-((7aR,11aS)-4-fluoro-12-methyl-2-(((S)-2-methylenetetrahydro-1H-pyrrolizin-7a(5H)-yl)methoxy)-7a, 8,10,11,11a, 12-hexahydro-7,9-dioxa-1,3,6,12-tetraazapleiaden-5-yl)-4-(trifluoromethyl)aniline], the IC50 was determined as 5.5 nM in assay [1], 0.25 nM in assay [2], 0.23 nM in assay [3] and 12 nM in assay [4].

Regarding `CN1CCC[C@@]2(COc3nc4c5c(nc(-c6cc(N)cc(Cl)c6C(F)(F)F)c(F)c5n3)O[C@H]3COCC[C@@H]3N4C)CCC[C@@H]12` [Example 64, 3-chloro-5-((7aR,11aS)-4-fluoro-12-methyl-2-(((4aS,7aR)-1-methyloctahydro-4aH-cyclopenta[b]pyridin-4a-yl)methoxy)-7a, 8,10,11,11a, 12-hexahydro-7,9-dioxa-1,3,6,12-tetraazapleiaden-5-yl)-4-(trifluoromethyl)aniline], the IC50 in assay [1] is 6.4 nM; in assay [2] it was 0.25 nM; in assay [3] it was 0.1 nM; in assay [4], 7.9 nM.

With `Cc1cc(N)cc(-c2nc3c4c(nc(OC[C@]56CCC[C@H]5N(C)CCC6)nc4c2F)N(C)[C@H]2CCOC[C@@H]2O3)c1C(F)(F)F` [Example 65, 3-((7aR,11aS)-4-fluoro-12-methyl-2-(((4aS,7aR)-1-methyloctahydro-4aH-cyclopenta[b]pyridin-4a-yl)methoxy)-7a, 8,10,11,11a, 12-hexahydro-7,9-dioxa-1,3,6,12-tetraazapleiaden-5-yl)-5-methyl-4-(trifluoromethyl)aniline], the IC50 stood at 8.9 nM in assay [1], 0.47 nM in assay [2], 0.27 nM in assay [3] and 17 nM in assay [4].

In general, IC50 refers to the concentration at which inhibition is half-maximal. Read a low IC50 as greater potency in that assay.
